According to ChEMBL document CHEMBL4813974 (Eur J Med Chem, 2021):
Calls of active or inactive are those of the source. The rule behind the calls is not given here.

Tests used:
[1] = target: T1, Acid ceramidase (Homo sapiens) (UniProt Q13510); assay: Inhibition of human ASAH1 stably over expressed in human A-375 cell lysate using RBM14C12 fluorogenic substrate measured at 2:1 compound to substrate molar ratio at pH 4.5 by fluorescence spectrophotometry; format: subcellular
T1 sequence (whole entry): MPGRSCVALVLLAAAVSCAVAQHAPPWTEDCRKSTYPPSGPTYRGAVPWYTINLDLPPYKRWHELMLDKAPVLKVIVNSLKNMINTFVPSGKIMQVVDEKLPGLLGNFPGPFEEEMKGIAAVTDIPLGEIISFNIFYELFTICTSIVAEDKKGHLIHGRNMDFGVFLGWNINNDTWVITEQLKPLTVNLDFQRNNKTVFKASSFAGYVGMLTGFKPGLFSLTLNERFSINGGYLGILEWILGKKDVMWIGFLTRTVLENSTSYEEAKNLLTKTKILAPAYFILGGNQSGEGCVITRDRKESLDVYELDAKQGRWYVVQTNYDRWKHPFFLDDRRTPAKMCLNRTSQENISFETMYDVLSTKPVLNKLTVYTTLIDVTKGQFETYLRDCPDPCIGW

[2] = target: T2, Alkaline ceramidase 3 (Mus musculus) (UniProt Q9D099); assay: Inhibition of ACER3 in ASAH2-null mouse embryonic fibroblast lysate using RBM14C16 fluorogenic substrate measured at 1:1 substrate to compound molar ratio at pH 9 in presence of Ca2+ by fluorescence spectrophotometry; conditions: MEF
T2 sequence (whole entry): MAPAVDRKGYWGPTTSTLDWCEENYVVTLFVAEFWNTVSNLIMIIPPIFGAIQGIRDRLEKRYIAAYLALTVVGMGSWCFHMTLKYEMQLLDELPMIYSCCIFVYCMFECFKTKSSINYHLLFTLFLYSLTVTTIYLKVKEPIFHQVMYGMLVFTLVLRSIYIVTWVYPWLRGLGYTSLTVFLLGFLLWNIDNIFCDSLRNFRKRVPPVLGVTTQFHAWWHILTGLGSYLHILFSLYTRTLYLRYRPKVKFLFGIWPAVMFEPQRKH

Neutral ceramidase = Neutral ceramidase (Homo sapiens, UniProt Q9NR71); assay: Inhibition of human ASAH2 stably over expressed in human A-375 cell lysate using RBM14C24 fluorogenic substrate measured at 20 uM at pH 7.5 by fluorescence spectrophotometry; format: subcellular
Chain of Neutral ceramidase (Q9NR71 whole entry): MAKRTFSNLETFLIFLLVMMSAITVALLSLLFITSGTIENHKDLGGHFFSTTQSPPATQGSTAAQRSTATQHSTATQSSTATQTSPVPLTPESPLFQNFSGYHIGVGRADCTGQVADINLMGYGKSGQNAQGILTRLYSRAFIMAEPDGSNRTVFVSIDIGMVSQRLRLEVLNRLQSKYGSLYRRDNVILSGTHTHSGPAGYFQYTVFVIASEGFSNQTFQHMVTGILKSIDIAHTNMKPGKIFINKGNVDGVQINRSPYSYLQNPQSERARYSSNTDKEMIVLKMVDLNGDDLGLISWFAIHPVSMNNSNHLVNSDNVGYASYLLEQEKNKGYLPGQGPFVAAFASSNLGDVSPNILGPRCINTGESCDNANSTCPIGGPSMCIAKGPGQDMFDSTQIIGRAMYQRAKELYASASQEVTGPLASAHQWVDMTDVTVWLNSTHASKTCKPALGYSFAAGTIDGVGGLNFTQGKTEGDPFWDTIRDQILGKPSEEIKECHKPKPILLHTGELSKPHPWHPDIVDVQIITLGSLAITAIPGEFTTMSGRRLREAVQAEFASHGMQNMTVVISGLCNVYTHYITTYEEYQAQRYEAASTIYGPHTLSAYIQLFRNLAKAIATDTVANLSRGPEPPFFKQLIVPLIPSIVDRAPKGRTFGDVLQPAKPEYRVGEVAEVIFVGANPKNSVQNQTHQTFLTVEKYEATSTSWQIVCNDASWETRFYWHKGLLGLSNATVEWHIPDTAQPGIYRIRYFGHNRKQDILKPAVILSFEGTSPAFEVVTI

[3] = target: T1, Acid ceramidase (Homo sapiens); assay: Inhibition of human ASAH1 stably over expressed in human A-375 cell lysate using RBM14C12 fluorogenic substrate measured at 1:1 compound to substrate molar ratio at pH 4.5 by fluorescence spectrophotometry; format: subcellular

| inhibition [1] | inhibition [2] | inhibition (Neutral ceramidase) | inhibition [3] | Structure (SMILES) |
| --- | --- | --- | --- | --- |
| inactive | inactive | – | – | CCCCCCCCCCCC/C=C/[C@@H](O)[C@H](C)NC(=O)CBr |
| inactive | inactive | – | – | CCCCCCCCCCCC/C=C/[C@H](O)[C@H](C)NC(=O)CCCCCCC |
| – | – | inactive | inactive | CCCCCCCCCCCC/C=C/[C@@H](O)[C@@H](C)NC(=O)c1ccc(CCCCC)cc1 |
| – | – | inactive | inactive | CCCCCCCCCCCC/C=C/[C@@H](O)[C@@H](C)NC(=O)c1ccc(OCCOCOC)cc1 |
| – | – | inactive | inactive | CCCCCCCCCCCC/C=C/[C@@H](O)[C@@H](C)NC(=O)c1ccc(C(C)(C)C)cc1 |
| inactive | inactive | – | – | CCCCCCCCCCCC/C=C/[C@H](O)[C@@H](C)NC(=O)C(C)(C)C |
| inactive | inactive | – | – | CCCCCCCCCCCCCC[C@@H](O)[C@@H](C)NC(=O)C(C)(C)C |
| inactive | inactive | – | – | CCCCCCCCCCCCCC[C@@H](O)[C@H](C)NC(=O)CBr |
| inactive | inactive | – | – | CCCCCCCCCCCCCC[C@H](O)[C@@H](C)NC(=O)CCCCCCC |
| inactive | inactive | – | – | CCCCCCCCCCCCCC[C@@H](O)[C@H](C)N |
| inactive | inactive | – | – | CCCCCCCCCCCC/C=C/[C@H](O)[C@@H](C)NC(=O)c1ccc(CCCCCCC)cc1 |
| inactive | inactive | – | – | CCCCCCCCCCCC/C=C/[C@@H](O)[C@@H](C)NC(=O)CBr |
| inactive | inactive | – | – | CCCCCCCCCCCCCC[C@H](O)[C@H](C)N |
| – | – | inactive | inactive | CCCCCCCCCCCC/C=C/[C@@H](O)[C@@H](C)NC(=O)c1ccc(OCCOCCOC)cc1 |
| inactive | inactive | – | – | CCCCCCCCCCCC/C=C/[C@@H](O)[C@H](C)N |
| inactive | inactive | – | – | CCCCCCCCCCCCCC[C@H](O)[C@H](C)NC(=O)CCCCCCC |
| inactive | inactive | – | – | CCCCCCCCCCCC/C=C/[C@@H](O)[C@H](C)NC(=O)C(C)(C)C |
| inactive | inactive | – | – | CCCCCCCCCCCCCC[C@H](O)[C@H](C)NC(=O)c1ccc(CCCCCCC)cc1 |
| inactive | inactive | – | – | CCCCCCCCCCCCCC[C@@H](O)[C@H](C)NC(=O)C(C)(C)C |
| – | – | inactive | inactive | CCCCCCCCCCCC/C=C/[C@@H](O)[C@@H](C)NC(=O)c1ccc(OCCCCCC)cc1 |
| inactive | inactive | – | – | CCCCCCCCCCCCCC[C@@H](O)[C@H](C)NC(=O)c1ccc(CCCCCCC)cc1 |
| inactive | inactive | – | – | CCCCCCCCCCCC/C=C/[C@H](O)[C@H](C)NC(=O)c1ccc(CCCCCCC)cc1 |
| inactive | inactive | – | – | CCCCCCCCCCCCCC[C@H](O)[C@@H](C)NC(=O)C(C)(C)C |
| inactive | inactive | – | – | CCCCCCCCCCCCCC[C@H](O)[C@H](C)NC(=O)C(C)(C)C |
| inactive | inactive | – | – | CCCCCCCCCCCC/C=C/[C@@H](O)[C@@H](C)N |
| inactive | inactive | – | – | CCCCCCCCCCCCCC[C@H](O)[C@@H](C)NC(=O)CBr |
| inactive | inactive | – | – | CCCCCCCCCCCCCC[C@@H](O)[C@@H](C)N |
| inactive | inactive | – | – | CCCCCCCCCCCCCC[C@H](O)[C@H](C)NC(=O)CBr |
| inactive | inactive | – | – | CCCCCCCCCCCC/C=C/[C@@H](O)[C@H](C)NC(=O)CCCCCCC |
| inactive | inactive | – | – | CCCCCCCCCCCC/C=C/[C@H](O)[C@@H](C)NC(=O)CCCCCCC |

Continued, compound first:

| Structure (SMILES) | inhibition [1] | inhibition [2] | inhibition (Neutral ceramidase) | inhibition [3] |
| --- | --- | --- | --- | --- |
| CCCCCCCCCCCCCC[C@@H](O)[C@@H](C)NC(=O)c1ccc(CCCCCCC)cc1 | inactive | inactive | – | – |
| CCCCCCCCCCCCCC[C@H](O)[C@@H](C)N | inactive | inactive | – | – |
| CCCCCCCCCCCC/C=C/[C@@H](O)[C@@H](C)NC(=O)c1ccc(OCCCCCCC)cc1 | – | – | inactive | inactive |
| CCCCCCCCCCCCCC[C@H](O)[C@@H](C)NC(=O)c1ccc(CCCCCCC)cc1 | inactive | inactive | – | – |
| CCCCCCCCCCCC/C=C/[C@@H](O)[C@@H](C)NC(=O)C(C)(C)C | inactive | inactive | – | – |
| CCCCCCCCCCCC/C=C/[C@H](O)[C@H](C)N | inactive | inactive | – | – |
| CCCCCCCCCCCC/C=C/[C@H](O)[C@H](C)NC(=O)CBr | inactive | inactive | – | – |
| CCCCCCCCCCCC/C=C/[C@@H](O)[C@@H](C)NC(=O)c1ccc(OCCCCCCCOCOC)cc1 | – | – | inactive | inactive |
| CCCCCCCCCCCC/C=C/[C@@H](O)[C@@H](C)NC(=O)c1ccccc1 | – | – | inactive | inactive |
| CCCCCCCCCCCCCC[C@@H](O)[C@@H](C)NC(=O)CBr | inactive | inactive | – | – |
| CCCCCCCCCCCC/C=C/[C@H](O)[C@@H](C)N | inactive | inactive | – | – |
| CCCCCCCCCCCC/C=C/[C@@H](O)[C@@H](C)NC(=O)c1ccc(OCCCCCOCOC)cc1 | – | – | inactive | inactive |
| CCCCCCCCCCCC/C=C/[C@@H](O)[C@@H](C)NC(=O)c1ccc(CCCCCC)cc1 | – | – | inactive | inactive |
| CCCCCCCCCCCC/C=C/[C@@H](O)[C@@H](C)NC(=O)c1ccc(CC)cc1 | – | – | inactive | inactive |
| CCCCCCCCCCCCCC[C@@H](O)[C@@H](C)NC(=O)CCCCCCC | inactive | inactive | – | – |
| CCCCCCCCCCCC/C=C/[C@@H](O)[C@@H](C)NC(=O)c1ccc(OCOC)cc1 | – | – | inactive | inactive |
| CCCCCCCCCCCC/C=C/[C@H](O)[C@@H](C)NC(=O)CBr | inactive | inactive | – | – |
| CCCCCCCCCCCC/C=C/[C@H](O)[C@H](C)NC(=O)C(C)(C)C | inactive | inactive | – | – |
| CCCCCCCCCCCC/C=C/[C@@H](O)[C@H](C)NC(=O)c1ccc(CCCCCCC)cc1 | inactive | inactive | – | – |
| CCCCCCCCCCCC/C=C/[C@@H](O)[C@@H](C)NC(=O)c1ccc(OCCCCC)cc1 | – | – | inactive | inactive |
| CCCCCCCCCCCCCC[C@@H](O)[C@H](C)NC(=O)CCCCCCC | inactive | inactive | – | – |
| CCCCCCCCCCCC/C=C/[C@@H](O)[C@@H](C)NC(=O)c1ccc(CCC)cc1 | – | – | inactive | inactive |
